Compound `O=Cc1cccc(Br)c1` has a boiling point of 234 °C.
In the case of `CCN(CC)c1cccc(O)c1`, the boiling point is reported as 276 °C and the melting point is reported as 78 °C.
For `CC(=O)S[C@H]1CC(=O)C=C2C[C@@H](SC(C)=O)[C@@H]3[C@H](CC[C@@]4(C)[C@H]3CC[C@]4(C)O)[C@]21C`, the melting point was 206 °C.
In the case of `CC(=O)c1ccccc1`, the boiling point is reported as 202 °C, the log10 Henry constant (atm·m³/mol) is reported as -4.98 and the log10 Koc (L/kg) is reported as 1.8. The log10 vapour pressure (mmHg) was -0.401, the melting point was 20 °C and the ready biodegradability was “readily biodegradable”.
In the case of `O=C(OCCO)c1ccc(C(=O)OCCO)cc1`, the ready biodegradability is reported as “readily biodegradable”.
Work on `OCCCc1ccncc1` yielded a boiling point of 289 °C and a melting point of 37 °C.
For `O=C1NC(=O)c2ccccc21`, the melting point was 238 °C and the ready biodegradability was “readily biodegradable”.
`N#Cc1ccc([N+](=O)[O-])cc1` gave a melting point of 148 °C.
Compound `CC(C)(C)C(O)/C(=C\c1ccc(Cl)cc1Cl)n1cncn1` (stereo not drawn) has a log10 vapour pressure (mmHg) of -4.43 and a melting point of 147 °C.
In the case of `OCCC1CCNCC1`, the boiling point is reported as 228 °C.
Work on `c1ccc2c(c1)Oc1ccccc1O2` yielded a log10 vapour pressure (mmHg) of -3.38 and a melting point of 122 °C.
`CCC(C)C(C)C(C)=O` (stereo not drawn) gave a boiling point of 158 °C.
For `O=C(O)CCCCCCCCCCCCCCCCCCC(=O)O`, the melting point was 126 °C.
With `C=CCOC(=O)c1ccccc1C(=O)OCC=C` the ready biodegradability was “readily biodegradable”.
With `C/C(=N/Nc1nc(C)cc(C)n1)c1ccccc1C` the log10 vapour pressure (mmHg) was -7.51 and the melting point was 176 °C.
Compound `CCCCCCCCCCCCCCBr` has a boiling point of 307 °C, a log10 vapour pressure (mmHg) of -3.35 and a melting point of 5.6 °C.
With `O=C(OC(=O)c1ccccc1)c1ccccc1` the boiling point was 360 °C, the log10 vapour pressure (mmHg) was -3.93 and the melting point was 42.5 °C.
Compound `CCC(C)c1ccccc1` (stereo not drawn) has a boiling point of 174 °C, a log10 vapour pressure (mmHg) of 0.243 and a melting point of -82.7 °C.
With `NCc1cccc(CN)c1` the boiling point was 247 °C and the ready biodegradability was “not readily biodegradable”.
Compound `Nc1ccc(Br)cc1C(=O)O` has a melting point of 220 °C.
Compound `C=CCc1ccccc1C` has a boiling point of 182 °C.
In the case of `Fc1cccc(F)n1`, the boiling point is reported as 125 °C.
Compound `CCCCC(CC)CCC(=O)CC(C)C` (stereo not drawn) has a boiling point of 252 °C.
Compound `O=C1C=C(c2ccccc2)CC1` has a boiling point of 234 °C and a melting point of -23 °C.
`CCC(C)(C)C(C)C(C)C` (stereo not drawn) gave a boiling point of 162 °C.
With `CC1(C)C(=O)N(Cl)C(=O)N1Cl` the melting point was 132 °C.
In the case of `O=C(O)c1cc[n+]([O-])cc1`, the melting point is reported as 270 °C.
In the case of `OCCCCCCCCCCO`, the melting point is reported as 74 °C.
`Cc1ccc[nH]1` gave a boiling point of 147 °C and a melting point of -35.6 °C.
For `N#Cc1cc([N+](=O)[O-])ccc1N`, the ready biodegradability was “not readily biodegradable”.
With `CCCCOC(=O)COC(=O)c1ccccc1C(=O)OCCCC` the log10 Koc (L/kg) was 3.7 and the ready biodegradability was “readily biodegradable”.
In the case of `CC(=O)OCOC(=O)[C@@H]1N2C(=O)[C@@H](NC(=O)Cc3ccccc3)[C@H]2SC1(C)C`, the melting point is reported as 107 °C.
In the case of `O=[N+]([O-])c1cccc(F)c1`, the boiling point is reported as 199 °C and the melting point is reported as 41 °C.
In the case of `CC1CCC2C(=O)OC(=O)C2C1` (stereo not drawn), the ready biodegradability is reported as “not readily biodegradable”.
`CCOC(=O)C1(c2ccccc2)CCN(CCc2ccc(N)cc2)CC1` gave a melting point of 83 °C.
With `Cc1ccc(O)cc1C` the ready biodegradability was “readily biodegradable”.
For `C#CC(C)(O)CC` (stereo not drawn), the boiling point was 120 °C, the log10 vapour pressure (mmHg) was 0.72 and the melting point was 30.5 °C. For the same compound, the ready biodegradability was “readily biodegradable”.
In the case of `CCCN(CCC)c1c([N+](=O)[O-])cc(S(N)(=O)=O)cc1[N+](=O)[O-]`, the log10 Koc (L/kg) is reported as 3.4, the melting point is reported as 141 °C and the ready biodegradability is reported as “not readily biodegradable”.
`CCOC(=O)c1cccc(N)c1` gave a boiling point of 294 °C.
For `ClC=CCc1ccccc1`, the boiling point was 211 °C.
`c1ccc(OCc2ccc(CCCN3CCOCC3)cc2)cc1` gave a melting point of 52.5 °C.
`COC(=O)C1=C(C)NC(C)=C(C(=O)OC)C1c1ccccc1[N+](=O)[O-]` showed a melting point of 173 °C.
`O=C1/C(=C2\Nc3c(Br)cc(Br)cc3C2=O)Nc2c(Br)cc(Br)cc21` showed a log10 vapour pressure (mmHg) of -11.1.
With `ClC1=C(Cl)C2(Cl)C(CBr)CC1(Cl)C2(Cl)Cl` (stereo not drawn) the melting point was 77 °C.
Compound `Clc1cc2oc3c(Cl)c(Cl)ccc3c2c(Cl)c1Cl` has a log10 vapour pressure (mmHg) of -8.65 and a melting point of 206 °C.
`CCSCCSP(=O)(OC)OC` showed a log10 Koc (L/kg) of 1.49 and a log10 vapour pressure (mmHg) of -3.52.
Compound `c1ccc2[nH]nnc2c1` has a boiling point of 350 °C, a log10 Koc (L/kg) of 1.69 and a melting point of 100 °C.
`Cc1c([N+](=O)[O-])cc(N)cc1[N+](=O)[O-]` gave a melting point of 171 °C.
Compound `C1CS1` has a boiling point of 55.5 °C and a log10 vapour pressure (mmHg) of 2.4.
`CC(Oc1ccc(Oc2ncc(C(F)(F)F)cc2Cl)cc1)C(=O)O` (stereo not drawn) showed a melting point of 108 °C.
`C1CCSSC1` gave a melting point of 32.5 °C.
For `CCn1c(C)nc2ccccc21`, the boiling point was 296 °C and the melting point was 51 °C.
For `N#CO`, the log10 vapour pressure (mmHg) was 2.91 and the melting point was -86 °C.
In the case of `O=C1CC=CCC1`, the boiling point is reported as 170 °C.
For `CCCSP(=O)(OCC)SCCC`, the log10 Koc (L/kg) was 1.85, the log10 vapour pressure (mmHg) was -3.42 and the melting point was -13 °C.
Compound `Cc1cnc(C)c(C)c1` has a boiling point of 184 °C.
For `Nc1cccc(-c2cccc(N)c2)c1`, the melting point was 93.5 °C.
In the case of `Cc1ccc(C(=O)c2ccccc2)cc1C`, the boiling point is reported as 341 °C and the melting point is reported as 47.5 °C.
For `O=C1NC(=O)C(c2ccccc2)(c2ccccc2)N1`, the melting point was 296 °C and the ready biodegradability was “not readily biodegradable”.
`CC(=O)c1cccc(C(F)(F)F)c1` showed a boiling point of 199 °C.
For `Cc1cnc2ccccc2c1`, the boiling point was 260 °C and the melting point was 16.5 °C.
With `CCOCCOC(=O)c1ccccc1C(=O)OCCOCC` the boiling point was 345 °C and the melting point was 34 °C.
In the case of `Sc1c(Cl)c(Cl)c(Cl)c(Cl)c1Cl`, the melting point is reported as 232 °C.

— the OPERA property sets (Mansouri et al. 2018)
